Experimental data published in patent US20050266577A1, “Ultrafiltration device for drug binding studies” (Millipore Corporation, priority 2002, published 2005).
Read-outs that look alike come from different tables or passages of the source.

Assays:
[1] = 10 nanomolar CE concentration in phosphate buffered saline
Excerpt: Microcon® Device Preparation:
The membrane to be tested was cut with the appropriate die cutter for the diameter of the device. The assembly consisted of placing the membrane on the support followed by addition of a gasket.
The collar is then placed on top of the assembly and sealed at a pressure varying from 65 to 100 psi.
Radioactive Analyte Preparation:
In order to prepare the analyte we used the following equation: [Concentration of Analyte]×[Volume needed for the experiment in microliter]×[Specific activity (Ci/mol)]×[1/Concentration (Ci/µl)].
The required volume of analyte was added to an appropriate volume of PBS. 200 µl of this preparation was used per sample.
Each membrane was tested in triplicate.
A first control plate, a Multiscreen® 96 well plate containing a heat sealed UPE (ultrahigh molecular weight polyethylene) composite cellulosic UF membrane, was used in a binding study.

[2] = Non-specific binding, second control plate with ultrafiltrate diluent added; conditions: 10 nanomolar CE in phosphate buffered saline
Protocol: Each membrane was tested in triplicate. Each Microcon® device was placed in the appropriately labeled retentate/filtrate vial. If the membrane to be tested needed to be pre-wetted before proceeding with this process, one needed to be sure that the membrane received a final rinse with PBS prior to testing. 200 µl of analyte solution was added to each Microcon® device and spun to dryness (20-30 minutes) in a microcentrifuge (14000-×g). The membranes were rinsed by adding 25 µl to each device and spun in the microcentrifuge (14000-×g) for 10 minutes.
To determine the amount of non-specific binding to the membrane, the collar and gasket were removed and the membrane placed in a glass scintillation vial. Three ml of scintillation cocktail was added to each vial. A 20 µl aliquot of the original solution was added to 3 ml of scintillation cocktail for reference. Radioactivity (in DPM) was determined by liquid scintillation counting using 1 minute counting periods and a stored quench curve as described by the equipment manufacturer.
The ratio of radioactivity found on the membrane compared to the total amount of radioactivity added was reported as a percentage and was used to assess CE NSB of the membrane being tested.

[3] = No support, table after second control plate (ultrafiltrate diluent)
[4] = Support: UPE composite, second control plate, ultrafiltrate diluent added

## C[C@H]1O[C@@H](O[C@H]2[C@@H](O)C[C@H](O[C@H]3[C@@H](O)C[C@H](O[C@H]4CC[C@@]5(C)[C@H](CC[C@@H]6[C@@H]5C[C@@H](O)[C@]5(C)[C@@H](C7=CC(=O)OC7)CC[C@]65O)C4)O[C@@H]3C)O[C@@H]2C)C[C@H](O)[C@@H]1O [digoxin]
[1]; No support
  % Non Specific Binding: 3%
[1]; Support: Non-woven 1
  % Non Specific Binding: 3%
[1]; Support: Non-woven 2
  % Non Specific Binding: 2%
[1]; Support: UPE composite
  % Non Specific Binding: 47%
[2]; [3]
  % Non Specific Binding: 3%
[2]; [4]
  % Non Specific Binding: 92%

## OC[C@@H](O)[C@@H](O)[C@H](O)[C@H](O)CO [mannitol]
[1]; No support
  % Non Specific Binding: 2%
[1]; Support: Non-woven 1
  % Non Specific Binding: 2%
[1]; Support: Non-woven 2
  % Non Specific Binding: 1%
[1]; Support: UPE composite
  % Non Specific Binding: 1%
[2]; [3]
  % Non Specific Binding: 1%
[2]; [4]
  % Non Specific Binding: 2%

## CN(Cc1cnc2nc(N)nc(N)c2n1)c1ccc(C(=O)N[C@@H](CCC(=O)O)C(=O)O)cc1 [methotrexate]
[1]; No support
  % Non Specific Binding: 4%
[1]; Support: Non-woven 1
  % Non Specific Binding: 0%
[1]; Support: Non-woven 2
  % Non Specific Binding: 3%
[1]; Support: UPE composite
  % Non Specific Binding: 16%

## CC(C)NCC(O)COc1cccc2ccccc12 (centres unmarked) [proprananol]
[1]; No support
  % Non Specific Binding: 4%
[1]; Support: Non-woven 1
  % Non Specific Binding: 0%
[1]; Support: Non-woven 2
  % Non Specific Binding: 2%
[1]; Support: UPE composite
  % Non Specific Binding: 61%

## C[C@]12CC[C@H]3[C@@H](CCC4=CC(=O)CC[C@@]43C)[C@@H]1CC[C@@H]2O [testosterone]
[1]; No support
  % Non Specific Binding: 4%
[1]; Support: Non-woven 1
  % Non Specific Binding: 1%
[1]; Support: Non-woven 2
  % Non Specific Binding: 1%
[1]; Support: UPE composite
  % Non Specific Binding: 101%
[2]; [3]
  % Non Specific Binding: 3%
[2]; [4]
  % Non Specific Binding: 80%
